# Test system: DSS (Dahl Salt Sensitive) rats
# Test: In vivo efficacy study on blood pressure in DSS rats (telemetry; systolic and diastolic pressure)
# Settings: for Systolic blood pressure, mean: Compound I-1 50 mg/kg, alone or combined, QD PO
# Excerpt: An in vivo study ascertains the effects on blood pressure in DSS (Dahl Salt Sensitive) rats. The DSS hypertensive rat model is a model of hypertension that is sensitive to dietary salt (NaCl), see for example Rapp (1982) Hypertension 4:753-763 and Hegde et al. BMC Pharmacology 2011, 11 (Suppl 1):P33. Under pentobarbital sodium anesthesia, a DSI (Data Sciences International, St. Paul, Minn.) telemetric probe is implanted. The transducer is inserted into abdominal aorta, and the transmitter is implanted into abdominal cavity. During postoperative recovery period, close observation is performed. Analgesics (Buprenorphine, 0.1-0.5 mg/kg, once per day for 1 day) and preventive antibiotics (Cephradine, 10˜15 mg/kg, ip., once per day for 3 days) are administered on a daily basis. Before the treatment period, all animals are fed with 8% high salt food for about 2 weeks. Test compound is formulated in 0.5% HPC and administered by oral gavage. Five groups of animals are treated as follows: 1. Vehicle, 0.5% HPC, QD, PO, N=5 2. Valsartan, 30 mg/kg, QD, PO, N=5 3. Compound I-1, 50 mg/kg, QD, PO, N=6 4. Compound I-1, 15 mg/kg+Valsartan, 30 mg/kg, QD, PO, N=5 5. Compound I-1, 50 mg/kg+Valsartan, 30 mg/kg, QD, PO, N=5 N is the number of animals. The mean arterial pressure, systolic pressure, diastolic pressure and heart rate after administration for each animal are measured. Interim results obtained before full study completion are shown in Tables 18 and 19 (full cohort of animals beyond day 7 were reduced due to some loss). Mean measurements of the systolic (Table 18) and diastolic (Table 19) blood pressures, for the baseline day prior to first treatment and for treatment days 1 and 7 only, in each treatment group, are shown. Measurements obtained every other hour only are shown.
compound,measurement,setting,value
"CCCCC(=O)N(Cc1ccc(-c2ccccc2-c2nnn[nH]2)cc1)[C@H](C(=O)O)C(C)C [Valsartan, valsartan]","Systolic blood pressure, mean","Baseline day prior to first treatment, Hour 1, groups Valsartan 30 mg/kg",157.31
same,"Systolic blood pressure, mean","Baseline day prior to first treatment, Hour 3, groups Valsartan 30 mg/kg",154.77
same,"Systolic blood pressure, mean","Baseline day prior to first treatment, Hour 5, groups Valsartan 30 mg/kg",151.17
same,"Systolic blood pressure, mean","Baseline day prior to first treatment, Hour 7, groups Valsartan 30 mg/kg",154.26
same,"Systolic blood pressure, mean","Baseline day prior to first treatment, Hour 9, groups Valsartan 30 mg/kg",160.88
same,"Systolic blood pressure, mean","Baseline day prior to first treatment, Hour 11, groups Valsartan 30 mg/kg",163.83
same,"Systolic blood pressure, mean","Baseline day prior to first treatment, Hour 13, groups Valsartan 30 mg/kg",164.35
same,"Systolic blood pressure, mean","Baseline day prior to first treatment, Hour 15, groups Valsartan 30 mg/kg",163.94
same,"Systolic blood pressure, mean","Baseline day prior to first treatment, Hour 17, groups Valsartan 30 mg/kg",164.12
same,"Systolic blood pressure, mean","Baseline day prior to first treatment, Hour 19, groups Valsartan 30 mg/kg",166.66
same,"Systolic blood pressure, mean","Baseline day prior to first treatment, Hour 21, groups Valsartan 30 mg/kg",166.05
same,"Systolic blood pressure, mean","Baseline day prior to first treatment, Hour 23, groups Valsartan 30 mg/kg",162.95
same,effect on blood pressure,"DSS rats, as compared to animals treated with vehicle alone, interim results",trend for lower blood pressure
same,"Systolic blood pressure, mean","Dosing day 1, Hour 1, Valsartan 30 mg/kg",159.22
same,"Systolic blood pressure, mean","Dosing day 1, Hour 3, Valsartan 30 mg/kg",149.24
same,"Systolic blood pressure, mean","Dosing day 1, Hour 5, Valsartan 30 mg/kg",152.75
same,"Systolic blood pressure, mean","Dosing day 1, Hour 7, Valsartan 30 mg/kg",160.54
same,"Systolic blood pressure, mean","Dosing day 1, Hour 9, Valsartan 30 mg/kg",165.09
same,"Systolic blood pressure, mean","Dosing day 1, Hour 11, Valsartan 30 mg/kg",166.16
same,"Systolic blood pressure, mean","Dosing day 1, Hour 13, Valsartan 30 mg/kg",162.84
same,"Systolic blood pressure, mean","Dosing day 1, Hour 15, Valsartan 30 mg/kg",162.88
same,"Systolic blood pressure, mean","Dosing day 1, Hour 17, Valsartan 30 mg/kg",169.80
same,"Systolic blood pressure, mean","Dosing day 1, Hour 19, Valsartan 30 mg/kg",162.27
same,"Systolic blood pressure, mean","Dosing day 1, Hour 21, Valsartan 30 mg/kg",163.01
same,"Systolic blood pressure, mean","Dosing day 1, Hour 23, Valsartan 30 mg/kg",155.05
same,"Systolic blood pressure, mean","Dosing day 7, Hour 1, Valsartan 30 mg/kg",165.60
same,"Systolic blood pressure, mean","Dosing day 7, Hour 3, Valsartan 30 mg/kg",143.04
same,"Systolic blood pressure, mean","Dosing day 7, Hour 5, Valsartan 30 mg/kg",142.52
same,"Systolic blood pressure, mean","Dosing day 7, Hour 7, Valsartan 30 mg/kg",153.17
same,"Systolic blood pressure, mean","Dosing day 7, Hour 9, Valsartan 30 mg/kg",170.26
same,"Systolic blood pressure, mean","Dosing day 7, Hour 11, Valsartan 30 mg/kg",173.95
same,"Systolic blood pressure, mean","Dosing day 7, Hour 13, Valsartan 30 mg/kg",175.24
same,"Systolic blood pressure, mean","Dosing day 7, Hour 15, Valsartan 30 mg/kg",177.02
same,"Systolic blood pressure, mean","Dosing day 7, Hour 17, Valsartan 30 mg/kg",176.02
same,"Systolic blood pressure, mean","Dosing day 7, Hour 19, Valsartan 30 mg/kg",176.83
same,"Systolic blood pressure, mean","Dosing day 7, Hour 21, Valsartan 30 mg/kg",164.22
same,"Systolic blood pressure, mean","Dosing day 7, Hour 23, Valsartan 30 mg/kg",163.41
same,"Diastolic blood pressure, Mean","Valsartan 30 mg/kg, Baseline day, Hour 1",106.03
same,"Diastolic blood pressure, Mean","Valsartan 30 mg/kg, Baseline day, Hour 3",102.82
same,"Diastolic blood pressure, Mean","Valsartan 30 mg/kg, Baseline day, Hour 5",100.19
same,"Diastolic blood pressure, Mean","Valsartan 30 mg/kg, Baseline day, Hour 7",103.02
same,"Diastolic blood pressure, Mean","Valsartan 30 mg/kg, Baseline day, Hour 9",110.48
same,"Diastolic blood pressure, Mean","Valsartan 30 mg/kg, Baseline day, Hour 11",114.29
same,"Diastolic blood pressure, Mean","Valsartan 30 mg/kg, Baseline day, Hour 13",115.22
same,"Diastolic blood pressure, Mean","Valsartan 30 mg/kg, Baseline day, Hour 15",113.98
same,"Diastolic blood pressure, Mean","Valsartan 30 mg/kg, Baseline day, Hour 17",114.14
same,"Diastolic blood pressure, Mean","Valsartan 30 mg/kg, Baseline day, Hour 19",116.35
same,"Diastolic blood pressure, Mean","Valsartan 30 mg/kg, Baseline day, Hour 21",116.78
same,"Diastolic blood pressure, Mean","Valsartan 30 mg/kg, Baseline day, Hour 23",111.79
same,"Diastolic blood pressure, Mean","Valsartan 30 mg/kg, Dosing day 1, Hour 1",107.73
same,"Diastolic blood pressure, Mean","Valsartan 30 mg/kg, Dosing day 1, Hour 3",101.25
same,"Diastolic blood pressure, Mean","Valsartan 30 mg/kg, Dosing day 1, Hour 5",98.63
same,"Diastolic blood pressure, Mean","Valsartan 30 mg/kg, Dosing day 1, Hour 7",100.29
same,"Diastolic blood pressure, Mean","Valsartan 30 mg/kg, Dosing day 1, Hour 9",109.35
same,"Diastolic blood pressure, Mean","Valsartan 30 mg/kg, Dosing day 1, Hour 11",115.04
same,"Diastolic blood pressure, Mean","Valsartan 30 mg/kg, Dosing day 1, Hour 13",116.06
same,"Diastolic blood pressure, Mean","Valsartan 30 mg/kg, Dosing day 1, Hour 15",113.61
same,"Diastolic blood pressure, Mean","Valsartan 30 mg/kg, Dosing day 1, Hour 17",112.82
same,"Diastolic blood pressure, Mean","Valsartan 30 mg/kg, Dosing day 1, Hour 19",119.69
same,"Diastolic blood pressure, Mean","Valsartan 30 mg/kg, Dosing day 1, Hour 21",112.65
same,"Diastolic blood pressure, Mean","Valsartan 30 mg/kg, Dosing day 1, Hour 23",112.26
same,"Diastolic blood pressure, Mean","Valsartan 30 mg/kg, Dosing day 7, Hour 1",113.86
same,"Diastolic blood pressure, Mean","Valsartan 30 mg/kg, Dosing day 7, Hour 3",94.17
same,"Diastolic blood pressure, Mean","Valsartan 30 mg/kg, Dosing day 7, Hour 5",93.33
same,"Diastolic blood pressure, Mean","Valsartan 30 mg/kg, Dosing day 7, Hour 7",102.69
same,"Diastolic blood pressure, Mean","Valsartan 30 mg/kg, Dosing day 7, Hour 9",117.65
same,"Diastolic blood pressure, Mean","Valsartan 30 mg/kg, Dosing day 7, Hour 11",123.73
same,"Diastolic blood pressure, Mean","Valsartan 30 mg/kg, Dosing day 7, Hour 13",125.63
same,"Diastolic blood pressure, Mean","Valsartan 30 mg/kg, Dosing day 7, Hour 15",126.20
same,"Diastolic blood pressure, Mean","Valsartan 30 mg/kg, Dosing day 7, Hour 17",124.23
same,"Diastolic blood pressure, Mean","Valsartan 30 mg/kg, Dosing day 7, Hour 19",127.67
same,"Diastolic blood pressure, Mean","Valsartan 30 mg/kg, Dosing day 7, Hour 21",112.77
same,"Diastolic blood pressure, Mean","Valsartan 30 mg/kg, Dosing day 7, Hour 23",112.12

# — US11426375B2, “Substituted bisphenyl butanoic ester derivatives as NEP inhibitors” (NOVARTIS AG, priority 2019, dated 2022)
